Reference: patent US11117931B2, “Antimicrobial peptide derived from Hp1404 peptide and uses thereof” (priority 2017, dated 2021)
Where no end group is shown, it is not given here.

What was measured:
[1] = test system: erythrocytes of a mouse (Balb/c); assay: Hemolytic activity; type: cell-based
Method: To compare the cytotoxicity among the peptides that are produced by the method of Example 1, erythrocyte hemolytic activity of the synthesized peptide was measured.
Specifically, erythrocytes of a mouse (Balb/c, 6 week old, female) were diluted in physiological saline (PBS, pH 7.0) to have concentration of 8%, and then subjected to a treatment with Hp1404, Hp1404-T1, Hp1404-T1a, Hp1404-T1b, Hp1404-T1c, Hp1404-T1d or Hp1404-T1e, each at concentration of 6.25, 12.5, 25.0, 50.0, 100.0 and 200.0 μM/well, respectively, followed by a reaction for 1 hour at 37° C. After that, the amount of hemoglobin contained in a supernatant collected by centrifuge at 1,000×g was determined by measuring the absorbance at a wavelength of 414 nm. As a control group to be used as a reference for cell disruption level, the supernatant collected by a treatment with 1% Triton X-100 (Sigma, USA) and a reaction for 1 hour at 37° C. was used to measure the absorbance. By setting the resulting absorbance value at 100%, the hemolytic activity of each peptide was calculated using the following mathematical formula 1. Erythrocyte disrupting ability (hemolysis) (%)=(Absorbance A−Absorbance B)/(Absorbance C−Absorbance B)×100 [Mathematical formula 1] (in the above formula, Absorbance A indicates the absorbance of a reaction solution treated with each peptide, in which the absorbance is measured at a wavelength of 414 nm; Absorbance B indicates the absorbance of a reaction solution treated with PBS, in which the absorbance is measured at a wavelength of 414 nm; and Absorbance C indicates the absorbance of a reaction solution treated with 1% Triton X-100, in which the absorbance is measured at a wavelength of 414 nm).

E. coli = assay: MIC, E. coli; type: cell-based, Escherichia coli; conditions: E. coli (ATCC 25922), 18 hours at 37° C.
Text: (§1) To compare the antimicrobial activity among the peptides produced by the method of Example 1, the inventors of the present invention measured the minimal growth inhibitory concentration (MIC), which is minimum concentration of the peptide showing no dissociation of bacterial cells.
(§2) Specifically, the bacterial strain described in the following Table 2 was purchased and cultured to a mid-log phase in each medium with a composition suitable for each strain. Then, after dilution to bacterial cell concentration of 2×10^4 cells/100 μl, the cells were inoculated to a microtiter plate (NUNC, USA). Thereafter, Hp1404-T1, Hp1404-T1a, Hp1404-T1b, Hp1404-T1c, Hp1404-T1d or Hp1404-T1e peptide which has been synthesized in Example 1 above was subjected to serial dilution, ½ times for each, with BSA (bovine serum albumin) solution in a 96-well plate. After adding the cells to a plate, the cells were cultured for 18 hours at 37° C. By using a microtiter plate reader (Merck Elisa reader, Germany), the absorbance was measured at a wavelength of 600 nm to determine the MIC value of each bacterial strain. As a control group, Hp1404 as a mother peptide was used.

L. monocytogenes = assay: MIC, L. monocytogenes; type: cell-based, Listeria monocytogenes; conditions: L. monocytogenes (KCTC 3710), 18 hours at 37° C.
Text: as §1, §2

[2] = test system: outer membrane of P. aeruginosa; assay: Outer membrane effect (NPN fluorescence); type: cell-based; conditions: peptide at 1×, 2× or 4×MIC
Method: By using the peptides prepared by the method of Example 1, effect of the peptide on the outer membrane and inner membrane of bacteria was examined. […] However, once the hydrophobic part is exposed as a result of damage occurring in cell wall, NPN emits fluorescence. After culturing each strain in TSB and NB medium, the strain was adjusted such that it has OD600 value of 0.2 in 5 mM HEPES buffer solution. After allowing the reaction to occur between 10 μM NPN dissolved in 95% ethanol and the bacteria by adding them in a 96-well black plate, the peptide at a concentration of 1×, 2× or 4×MIC and 0.1% Triton X-100 were further added, and then the fluorescence was measured.

[3] = test system: Pseudomonas aeruginosa strain 1034; assay: In vivo antimicrobial activity, infected skin wound; design: species or system BALB/c mouse; number of colonies from skin tissues: reference not given here; conditions: intracutaneous
Method: By using Hp1404-T1e found to have the most excellent antimicrobial activity among the peptides that are prepared by the method of Example 1, in vivo antimicrobial activity was measured. Specifically, among the Pseudomonas aeruginosa strains, strain 1034 was selected and tested. The strain was prepared by washing 3 times with PBS buffer. Ciprofloxacin antibiotic was used as a control group. A BALB/c mouse (6 week old) was shaved clean and a wound with pre-determined size was created thereon. Then, the wound site was injected intracutaneously with Pseudomonas aeruginosa strain 1034 ([…], 2×10^5 CFU/ml). After the bacterial infection, the peptide and antibiotic, each prepared at a concentration of 0.1 mg/ml and 0.2 mg/ml, respectively, were intracutaneously injected, and the observation was made everyday. On each day, the skin tissues were sampled and smeared on an NB solid medium. The smeared medium was incubated in an incubator for 18 hours, and the number of grown colonies was counted and expressed in %.

Substance	Erythrocyte disrupting ability ([1]; peptide concentration 6.25 μM) [%]	Erythrocyte disrupting ability ([1]; peptide concentration 12.5 μM) [%]	Erythrocyte disrupting ability ([1]; peptide concentration 25 μM) [%]	Erythrocyte disrupting ability ([1]; peptide concentration 50 μM) [%]	Erythrocyte disrupting ability ([1]; peptide concentration 100 μM) [%]	Erythrocyte disrupting ability ([1]; peptide concentration 200 μM, 1 hour at 37° C., relative to 1% Triton X-100) [%]	Minimal inhibitory concentration (E. coli) [µM]	Minimal inhibitory concentration (L. monocytogenes) [µM]	NPN fluorescence (effect on outer membrane) [2]	wound healing ([3]; 0.1 mg/ml and 0.2 mg/ml, observed everyday)	number of colonies from skin tissues ([3]; Day 5, 0.1 mg/ml treatment condition) [%]	number of colonies from skin tissues ([3]; Day 5, 0.2 mg/ml treatment condition) [%]
GILGKLWEGVKSIF-NH2 [Hp1404]	0.01	2.16	11.01	55.41	92.64	100	6.25	3.13	increases in treatment concentration-dependent manner	–	–	–
ILKKLLKKVKSI-NH2 [Hp1404-T1d]	0	0	0	0	0	–	>25	>25	–	–	–	–
ILKKLLKKVKKI-NH2 [Hp1404-T1e]	0.10	0.28	0.41	0	0.15	–	>25	>25	–	wound healing effect in peptide concentration-dependent manner	40	20
